ChEMBL document CHEMBL5113434, “Discovery of novel Thieno[2,3-d]imidazole derivatives as agonists of human STING for antitumor immunotherapy using systemic administration” (Eur J Med Chem, 2022)
Activity calls are given as the source filed them. The calls are words filed in the database; no cut-off is given here.

How the values were obtained:
[1] = biological target: T1, Stimulator of interferon genes protein (Mus musculus, UniProt Q3TBT3); test: Agonist activity at STING in mouse RAW-Lucia ISG cells assessed as ISG activation incubated for 24 hrs by Quanti-luc reagent based assay; assay type: cell-based
T1 sequence (Q3TBT3 whole entry): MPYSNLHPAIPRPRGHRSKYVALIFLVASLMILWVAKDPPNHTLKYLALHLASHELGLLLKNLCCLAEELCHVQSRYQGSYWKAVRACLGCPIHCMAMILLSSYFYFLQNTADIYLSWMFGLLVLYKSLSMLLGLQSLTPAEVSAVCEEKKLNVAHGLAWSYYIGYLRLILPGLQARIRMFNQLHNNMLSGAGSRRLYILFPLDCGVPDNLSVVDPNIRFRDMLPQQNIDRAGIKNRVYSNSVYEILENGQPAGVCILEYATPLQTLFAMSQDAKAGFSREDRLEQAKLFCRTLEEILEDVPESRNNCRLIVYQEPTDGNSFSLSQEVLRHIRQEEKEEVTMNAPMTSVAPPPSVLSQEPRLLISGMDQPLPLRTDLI

[2] = biological target: T2, Stimulator of interferon genes protein (Homo sapiens, UniProt Q86WV6); test: Agonist activity at STING in human THP1-Dual cells assessed as ISG activation incubated for 24 hrs by Quanti-luc reagent based assay; assay type: cell-based
[3] = biological target: T2, Stimulator of interferon genes protein; test: Agonist activity at STING in human THP1-Dual cells assessed as fold change in ISG activation at 10 uM incubated for 24 hrs by Quanti-luc reagent based assay relative to control; assay type: cell-based; conditions: filed as agonist
[4] = biological target: T3, Stimulator of interferon genes protein (Mus musculus) (UniProt Q3TBT3); test: Agonist activity at STING in mouse RAW-Lucia ISG cells assessed as fold change in ISG activation at 50 uM incubated for 24 hrs by Quanti-luc reagent based assay relative to control; assay type: cell-based; conditions: filed as agonist
T3 sequence (whole entry): T1 sequence (Q3TBT3 whole entry)

[5] = biological target: T2, Stimulator of interferon genes protein; test: Agonist activity at STING in human THP-1 cells; assay type: cell-based
[6] = biological target: T2, Stimulator of interferon genes protein; test: Activation of STING pathway in human 293T-Dual hSTING-H232 cells assessed as increase in ISG expression level measured for 24 hrs by SEAP reporter based Quanti-luc assay; assay type: cell-based; conditions: filed as activator, dose 0.01-1 µM, DDE = dose-dependent effect
[7] = Agonist activity at human STING R232H mutant
[8] = biological target: T2, Stimulator of interferon genes protein; test: Activation of STING pathway in human THP1-Dual cells assessed as increase in IFNbeta expression level at 0.1 uM measured for 24 hrs by chemiluminescence based analysis; assay type: cell-based; conditions: filed as activator
[9] = biological target: T2, Stimulator of interferon genes protein; test: Activation of STING pathway in human THP1-Dual cells assessed as increase in IFNbeta expression level at 0.01 to 1 uM measured for 24 hrs by chemiluminescence based analysis; assay type: cell-based; conditions: filed as activator, dose 0.01-1 µM
[10] = biological target: T2, Stimulator of interferon genes protein; test: Activation of STING pathway in human THP1-Dual cells assessed as increase in IP-10 expression level at 0.1 uM measured for 24 hrs by chemiluminescence based analysis; assay type: cell-based; conditions: filed as activator
[11] = biological target: T2, Stimulator of interferon genes protein; test: Activation of STING pathway in human THP1-Dual cells assessed as increase in IP-10 expression level at 0.01 to 1 uM measured for 24 hrs by chemiluminescence based analysis; assay type: cell-based; conditions: filed as activator, dose 0.01-1 µM
[12] = biological target: T2, Stimulator of interferon genes protein; test: Activation of STING pathway in human 293T-Dual hSTING-H232 cells assessed as increase in IFNbeta expression level measured for 24 hrs by SEAP reporter based Quanti-luc assay; assay type: cell-based; conditions: filed as activator, dose 0.01-1 µM, DDE = dose-dependent effect
[13] = biological target: T2, Stimulator of interferon genes protein; test: Inhibition of human wild type STING

T2 sequence (Q86WV6 whole entry): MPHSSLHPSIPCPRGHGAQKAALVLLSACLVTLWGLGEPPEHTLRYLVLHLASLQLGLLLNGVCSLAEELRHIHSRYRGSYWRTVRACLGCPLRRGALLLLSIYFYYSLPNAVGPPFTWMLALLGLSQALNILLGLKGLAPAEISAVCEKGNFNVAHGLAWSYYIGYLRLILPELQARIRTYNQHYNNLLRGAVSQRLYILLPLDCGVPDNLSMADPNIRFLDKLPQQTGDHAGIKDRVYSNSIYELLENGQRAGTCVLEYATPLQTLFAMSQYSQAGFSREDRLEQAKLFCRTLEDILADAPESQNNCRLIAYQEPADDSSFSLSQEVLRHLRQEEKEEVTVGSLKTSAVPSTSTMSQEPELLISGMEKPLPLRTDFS

Structure (SMILES)	EC50 [1]	EC50 [2]	fold change (FC) [3]	fold change (FC) [4]	other results
CCn1nc(C)cc1C(=O)Nc1nc2cc(C(N)=O)sc2n1C/C=C/Cn1c(NC(=O)c2cc(C)nn2CC)nc2cc(C(N)=O)cc(OC3COC3)c21	> 100 µM	1.56 µM	49.2	10.2	
O=C(Nc1cc(F)c(F)cc1C(=O)O)c1ccc(N2C=CNC2)nn1					EC50 [5]: 2.1 µM
CCn1nc(C)cc1C(=O)Nc1nc2cc(C(N)=O)sc2n1C/C=C/Cn1c(NC(=O)c2cc(C)nn2CC)nc2cc(C(N)=O)cc(O[C@H]3CCOC3)c21	> 100 µM	1.86 µM	80.3	1.5	
CCn1nc(C)cc1C(=O)Nc1nc2cc(NC(=O)CN)ccc2n1CCCCn1c(NC(=O)c2cc(C)nn2CC)nc2cc(C(N)=O)cc(OCCCN3CCOCC3)c21			11	1.39	
CCn1nc(C)cc1C(=O)Nc1nc2cc(C(N)=O)sc2n1CCCCn1c(NC(=O)c2cc(C)nn2CC)nc2cc(C(N)=O)sc21			1.15	2.63	
CCn1nc(C)cc1C(=O)Nc1nc2cc(C(N)=O)sc2n1C/C=C/Cn1c(NC(=O)c2cc(C)nn2CC)nc2cc(C(N)=O)cc(OCC3CC3)c21	> 100 µM	0.28 µM	141	12.6	
CCn1nc(C)cc1C(=O)/N=c1\[nH]c2cc(C(N)=O)cc(OC)c2n1C/C=C/Cn1/c(=N/C(=O)c2cc(C)nn2CC)[nH]c2cc(C(N)=O)cc(OCCCN3CCOCC3)c21					Activity [6]: Dde; EC50 [7]: 0.2 µM; Activity [8]: Active; Activity [9]: Active; Activity [10]: Active; Activity [11]: Active; Activity [12]: Dde
CCn1nc(C)cc1C(=O)Nc1nc2sc(C(N)=O)cc2n1CCCCn1c(NC(=O)c2cc(C)nn2CC)nc2cc(C(N)=O)cc(OCCCN3CCOCC3)c21			1.15	1	
CCn1nc(C)cc1C(=O)/N=c1\[nH]c2cc(C(N)=O)ccc2n1C[C@@H](O)c1ccccc1					IC50 [13]: 1.4 µM
